Experiments:
[1] = target: T1, OATP1B1 (Homo sapiens, UniProt Q9Y6L6); assay: cryo-EM structure (outward-open, […] Å); also cell DCF uptake assay; assay type: binding; parameters: gene SLCO1B1; human OATP1B1 with C-terminal tandem His and Flag tags
T1 sequence (Q9Y6L6 1-691): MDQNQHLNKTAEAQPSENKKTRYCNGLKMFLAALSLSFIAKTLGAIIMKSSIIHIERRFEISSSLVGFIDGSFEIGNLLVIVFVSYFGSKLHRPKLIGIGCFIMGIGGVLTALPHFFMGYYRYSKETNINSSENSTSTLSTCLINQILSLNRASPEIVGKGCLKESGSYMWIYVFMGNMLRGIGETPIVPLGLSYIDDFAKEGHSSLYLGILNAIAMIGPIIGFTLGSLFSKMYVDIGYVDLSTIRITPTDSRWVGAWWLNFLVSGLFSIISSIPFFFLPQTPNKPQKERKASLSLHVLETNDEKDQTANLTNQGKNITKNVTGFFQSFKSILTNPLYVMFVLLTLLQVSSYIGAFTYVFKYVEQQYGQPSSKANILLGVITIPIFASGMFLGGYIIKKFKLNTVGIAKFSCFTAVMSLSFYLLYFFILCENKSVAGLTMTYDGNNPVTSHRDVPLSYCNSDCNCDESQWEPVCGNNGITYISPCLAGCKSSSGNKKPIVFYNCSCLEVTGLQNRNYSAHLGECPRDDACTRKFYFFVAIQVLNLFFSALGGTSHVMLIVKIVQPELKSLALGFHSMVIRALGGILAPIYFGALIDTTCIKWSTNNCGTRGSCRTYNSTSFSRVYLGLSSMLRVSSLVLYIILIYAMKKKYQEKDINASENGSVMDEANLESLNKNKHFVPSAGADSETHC

[2] = target: T1, OATP1B1; parameters: gene SLCO1B1
[3] = target: T1, OATP1B1; assay: cryo-EM structure (inward-open, […] Å); also [3H]-E3S proteoliposome counterflow and DCF uptake inhibition; assay type: binding; parameters: gene SLCO1B1; human OATP1B1 with C-terminal tandem His and Flag tags

Row | Structure (SMILES) | cryo-EM structure (outward-open, 3.73 Å); also DCF uptake inhibition in HEK293T [2] | also measured
1 | O=C1OC2(c3cc(Cl)c(O)cc3Oc3cc(O)c(Cl)cc32)c2ccccc21 [D, 2′,7′-dichlorofluorescein] |  | cryo-EM structure (outward-open, 2.92 Å); also cell DCF uptake assay [1]: DCF extends towards a minor hydrophilic pocket within the interior of the CTD by forming hydrogen-bond interactions with N544 and S548
2 | COc1ccc2c(O[C@@H]3C[C@H]4C(=O)N[C@]5(C(=O)NS(=O)(=O)C6CC6)C[C@H]5/C=C\CCCCN(C)C(=O)[C@@H]4C3)cc(-c3nc(C(C)C)cs3)nc2c1C [S, simeprevir] | Bilirubin and simeprevir occupy the major pocket located in the central cavity, while DCF binds to the minor pocket | 
3 | C[C@]12CC[C@H]3c4ccc(OS(=O)(=O)O)cc4CC[C@@H]3[C@@H]1CCC2=O [E, estrone-3-sulfate] |  | cryo-EM structure (inward-open, 3.2 Å); also [3H]-E3S proteoliposome counterflow [3]: The EM density of E3S in OATP1B1–Ein is unambiguously resolved, allowing us to discern the pose of the E3S
4 | C=CC1=C(C)/C(=C/c2[nH]c(Cc3[nH]c(/C=C4\NC(=O)C(C)=C4C=C)c(C)c3CCC(=O)O)c(CCC(=O)O)c2C)NC1=O [B, bilirubin] | Bilirubin and simeprevir occupy the major pocket located in the central cavity, while DCF binds to the minor pocket | 
